What was measured:
[1] = target: T1, AMPK α2/α1 CAT β1γ1 (Homo sapiens, UniProt P54619+P54646, A116S/A126G/A242I/C200S/E112D/E217D/E235Q/E34K/F89I/G228D/H108N/I233T/I32V/K62R/L254M/M114K/M246K/Q36E/R227C/R239P/T243S/T87S/V111L/V17I/V230I); assay: Chimeric AMPK complex activation assay; assay type: biochemical; settings: complex expressed in E. coli; read-out: EC50, allosteric activation
T1 construct: 6×His (N); made in house; host or cells: E. coli (tricistronic pET15-b construct)
From the text: (§1) Figure 3 Regulatory Elements within the α-Linker Determine the Isoform Specificity of C2 (A) Diagram illustrating the domain organization of the AMPKα subunit with a global pairwise alignment of a section of the α-linker of human AMPKα1 (Q13131) and AMPKα2 (P54646). Regulatory elements in the α-linker are highlighted, including the α-hook as originally defined by [Xiao et al. (2011)] (pink) and the reassigned sequence (also known as α-RIM2) shaded in orange. The secondary structure for α1 is derived from PDB ID 2Y94. The table summarizes the sequences of the α1/α2 chimeras produced to examine the role of various structural elements in the activation of α2β1γ1 complexes by C2. (B–E) Human AMPKα1/α2 chimeras (defined in A) were generated as complexes with β1γ1 in E. coli. Purified active complexes were assayed for the activation of phosphotransferase activity by AMP and C2, as described in Figure 1. Results (line graphs) are expressed as the fold increase in activity relative to reactions performed in the absence of compound and represent the mean ± SD of three independent experiments. Complexes were also assayed for protection against dephosphorylation and inactivation by PP2Cα, as described in Figures 2C and 2D. Results (bar charts) are expressed as the mean (percentage of control) ± SD of three independent experiments. Representative blots of pT172 and total AMPKα are shown below the bar charts. TEXT PRINTED IN THE PICTURE: (B) C2: AMPK211 - α2/α1 CAT: EC50: ND | (B) AMP: AMPK211 - α2/α1 CAT: EC50: 1.3 ± 0.2 μM | (C) C2: AMPK211 - α2/α1 REG: EC50: 0.009 ± 0.0006 μM | (C) AMP: AMPK211 - α2/α1 REG: EC50: 3.1 ± 0.3 μM | (D) C2: AMPK211 - α2/α1 HOOK: EC50: ND | (D) AMP: AMPK211 - α2/α1 HOOK: EC50: 1.4 ± 0.2 μM | (E) C2: AMPK211 + α2/α1 LOOP: EC50: 0.013 ± 0.001 μM | (E) AMP: AMPK211 + α2/α1 LOOP: EC50: 2.7 ± 0.3 μM […]
(§2) AMPK phosphotransferase activity was assayed in reactions (50 μl) containing 50 mM HEPES, pH 7.4, 10 mM MgCl2, 0.1 mM EGTA, 1 mM DTT, 0.01% BRIJ-35, 100 μM [γ-^32P]ATP (∼250 CPM⋅pmol^−1) and 200 μM AMARA (AMARAASAAALARRR). Reactions were started by the addition of AMPK (5 mU), incubated for 20 min at 30°C and quenched by spotting onto P81 and immersion in 75 mM H3PO4. Washed filters were dried and [^32P] incorporation determined by Cherenkov counting. AMPK activity in cell extracts was determined by immunoprecipitation with AMPKα1 or AMPKα2 antibodies from 50 μg material, as previously described ([Hunter et al., 2011]). […]

[2] = target: T2, AMPK α2/α1 HOOK β1γ1 (Homo sapiens, UniProt P54619+P54646, A386E/C382H/K379R/P383T); assay: Chimeric AMPK complex activation assay; assay type: biochemical; settings: complex expressed in E. coli; read-out: EC50, allosteric activation
T2 construct: 6×His (N); made in house; host or cells: E. coli (tricistronic pET15-b construct)
T2 sequence (P54646 whole entry K379R/C382H/P383T/A386E): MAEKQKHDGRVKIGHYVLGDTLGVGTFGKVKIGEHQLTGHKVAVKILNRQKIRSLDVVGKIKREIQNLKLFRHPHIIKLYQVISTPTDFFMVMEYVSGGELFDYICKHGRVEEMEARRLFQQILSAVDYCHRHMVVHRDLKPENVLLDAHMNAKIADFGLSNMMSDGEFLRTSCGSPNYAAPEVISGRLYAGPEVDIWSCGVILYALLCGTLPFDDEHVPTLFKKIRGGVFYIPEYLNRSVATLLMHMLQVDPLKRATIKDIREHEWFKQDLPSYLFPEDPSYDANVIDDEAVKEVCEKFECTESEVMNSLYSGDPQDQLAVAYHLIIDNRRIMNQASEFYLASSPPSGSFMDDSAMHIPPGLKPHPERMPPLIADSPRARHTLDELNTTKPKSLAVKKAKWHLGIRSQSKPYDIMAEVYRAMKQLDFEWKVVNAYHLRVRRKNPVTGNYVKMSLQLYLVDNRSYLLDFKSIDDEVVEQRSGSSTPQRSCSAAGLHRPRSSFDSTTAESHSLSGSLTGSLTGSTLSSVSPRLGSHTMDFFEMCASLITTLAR
T2 sequence (Q9Y478 whole entry partner): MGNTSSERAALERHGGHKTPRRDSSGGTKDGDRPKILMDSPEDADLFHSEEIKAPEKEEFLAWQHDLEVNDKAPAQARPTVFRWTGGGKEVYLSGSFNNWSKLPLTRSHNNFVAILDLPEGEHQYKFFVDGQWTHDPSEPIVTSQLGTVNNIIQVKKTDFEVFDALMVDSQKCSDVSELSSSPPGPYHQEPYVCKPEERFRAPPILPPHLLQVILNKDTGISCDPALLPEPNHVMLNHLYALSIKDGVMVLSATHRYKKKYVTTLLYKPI
T2 sequence (P54619 whole entry): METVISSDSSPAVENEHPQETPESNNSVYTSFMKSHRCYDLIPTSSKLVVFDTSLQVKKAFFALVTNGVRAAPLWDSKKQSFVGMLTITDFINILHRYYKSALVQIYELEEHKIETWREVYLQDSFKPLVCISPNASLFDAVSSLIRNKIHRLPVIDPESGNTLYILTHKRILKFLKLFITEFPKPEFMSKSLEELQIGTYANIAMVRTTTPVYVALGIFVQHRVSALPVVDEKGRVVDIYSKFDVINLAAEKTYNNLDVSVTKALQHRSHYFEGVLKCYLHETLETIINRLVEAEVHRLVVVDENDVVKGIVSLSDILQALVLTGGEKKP
From the text: as §1, §2

[3] = test system: LKB1−/− mouse embryonic fibroblasts; assay: AMPK and ACC phosphorylation in LKB1-null fibroblasts; assay type: cell-based; settings: 1 hr; AICAR 2 mM
Experimental: AICAR (0.5 mM) was included as a positive control. Cell lysates were analyzed using western blotting with the indicated antibodies. (B) AMPKα1 or AMPKα2 complexes were immunoprecipitated from hepatocyte extracts prepared as described in (A) and assayed for kinase activity using 0.2 mM AMARA and 0.1 mM ATP. Results are expressed as the mean Pi incorporated in picomoles per minute-milligram ± SD. (C) Hepatocytes were stimulated with 30 μM C13 for the indicated times prior to harvesting, with AICAR (0.5 mM, 1 hr) as positive control. Lysates were analyzed using western blotting with the indicated antibodies. (D) Mouse hepatocytes were treated with the indicated compounds for 1 hr, and adenine nucleotide ratios were determined using capillary electrophoresis of perchloric acid extracts. […] Lysates were analyzed using western blotting with the indicated antibodies. (F) Wild-type (LKB1^+/+) or LKB1-null (LKB1^−/−) mouse embryonic fibroblasts were incubated with the indicated concentrations of C13 for 1 hr. AICAR (2 mM) was included as a positive control. Lysates were analyzed using western blotting with the indicated antibodies.

T1 sequence (P54619 whole entry, stated change not applied): as the sequence (P54619 whole entry) above
T1 sequence (Q9Y478 whole entry, further chain): as the sequence (Q9Y478 whole entry partner) above
T1 sequence (P54646 other isoform, or with tags, fused parts or gaps with the stated changes): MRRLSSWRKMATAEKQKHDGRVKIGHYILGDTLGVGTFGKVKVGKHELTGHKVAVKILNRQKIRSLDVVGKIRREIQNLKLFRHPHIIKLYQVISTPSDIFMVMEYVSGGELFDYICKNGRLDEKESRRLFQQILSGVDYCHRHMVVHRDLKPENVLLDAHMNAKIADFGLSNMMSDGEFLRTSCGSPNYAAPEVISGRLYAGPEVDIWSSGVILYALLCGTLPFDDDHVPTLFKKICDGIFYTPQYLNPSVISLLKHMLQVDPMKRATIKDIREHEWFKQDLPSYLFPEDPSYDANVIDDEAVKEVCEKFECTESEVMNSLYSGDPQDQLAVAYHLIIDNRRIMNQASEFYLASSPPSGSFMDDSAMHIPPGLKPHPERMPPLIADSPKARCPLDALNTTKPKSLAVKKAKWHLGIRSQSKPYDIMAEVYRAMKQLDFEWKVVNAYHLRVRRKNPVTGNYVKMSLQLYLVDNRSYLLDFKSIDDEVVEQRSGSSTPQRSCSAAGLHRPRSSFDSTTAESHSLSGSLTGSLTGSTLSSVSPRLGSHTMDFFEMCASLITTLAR

Compound	EC50 [1]	EC50 [2]	compound-induced phosphorylation of AMPK and ACC [3]
Nc1ncnc2c1ncn2[C@@H]1O[C@H](COP(=O)(O)O)[C@@H](O)[C@H]1O [AMP, reference compound]	1300 ± 200 nM	1400 ± 200 nM	–
CC(C)C(=O)OCOP(=O)(OCOC(=O)C(C)C)c1ccc(C2=NOC(=O)C2)o1 [Compound C13]	–	–	abolished

— paper PMC4104029, “Mechanism of Action of Compound-13: An α1-Selective Small Molecule Activator of AMPK” (Chemistry & Biology, 2014)
